SMILES strings stand for the structures.

The nature of the data set: shake flask on a mixture of 185; loss from the water phase only; LC-Orbitrap peak areas. The conditions noted are these: room.
For the compound `CC(C)Nc1nc(N)nc(Cl)n1`, the “log partition 1-octanol / HPLC water, unbuffered, traces of methanol / DMSO” value (“log partition 1-octanol / HPLC water” for short) was found to be 1.201 log10; the “log partition butyl acetate / HPLC water, unbuffered, traces of methanol / DMSO” value (shortened to “log partition butyl acetate / HPLC water”) amounted to 1.711 log10; the “log partition chloroform / HPLC water, unbuffered, traces of methanol / DMSO” value (“log partition chloroform / HPLC water” below) is listed as 1.238 log10; the “log partition cyclohexane / HPLC water, unbuffered, traces of methanol / DMSO” value (shortened to “log partition cyclohexane / HPLC water”) is on record as -0.6663 log10. The “log partition dichloromethane / HPLC water, unbuffered, traces of methanol / DMSO” value is 1.437 log10; the “log partition n-hexane / HPLC water, unbuffered, traces of methanol / DMSO” value (from here on “log partition n-hexane / HPLC water”) is recorded as -0.7941 log10; the “log partition n-octane / HPLC water, unbuffered, traces of methanol / DMSO” value (from here on “log partition n-octane / HPLC water”) is listed as -0.5719 log10; the “log partition n-undecane / HPLC water, unbuffered, traces of methanol / DMSO” value (from here on “log partition n-undecane / HPLC water”) is recorded as -1.115 log10. Also, the “log partition oleylalcohol / HPLC water, unbuffered, traces of methanol / DMSO” value (“log partition oleylalcohol / HPLC water” below) worked out at 1.559 log10 and the “log partition toluene / HPLC water, unbuffered, traces of methanol / DMSO” value (“log partition toluene / HPLC water” for short) was 0.5402 log10.
Turning to `CCCCCCCCCCCC(=O)OCC(O)CO` (stereo not shown), the “log partition 1-octanol / HPLC water” value is reported as -0.5214 log10; the “log partition butyl acetate / HPLC water” value is -0.773 log10; the “log partition chloroform / HPLC water” value is listed as -0.7717 log10; the “log partition cyclohexane / HPLC water” value is reported as -1.167 log10. Moreover, the “log partition dichloromethane / HPLC water, unbuffered, traces of methanol / DMSO” value is on record as -0.6352 log10; the “log partition n-hexane / HPLC water” value was -1.755 log10; the “log partition n-octane / HPLC water” value is -1.639 log10; the “log partition n-undecane / HPLC water” value is -1.584 log10. Besides, the “log partition oleylalcohol / HPLC water” value is -1.087 log10 and the “log partition toluene / HPLC water” value is given as -1.18 log10.
Regarding `C=C(C)C(=O)OCCOCCOC(=O)C(=C)C`, the “log partition 1-octanol / HPLC water” value was 0.2475 log10; the “log partition butyl acetate / HPLC water” value is reported as -0.01795 log10; the “log partition chloroform / HPLC water” value stood at 0.3491 log10; the “log partition cyclohexane / HPLC water” value is reported as -0.1638 log10. Also, the “log partition dichloromethane / HPLC water, unbuffered, traces of methanol / DMSO” value was 0.4156 log10; the “log partition n-hexane / HPLC water” value is given as -0.1437 log10; the “log partition n-octane / HPLC water” value is given as -0.3242 log10; the “log partition n-undecane / HPLC water” value is reported as -0.3846 log10. Further, the “log partition oleylalcohol / HPLC water” value is on record as 0.1237 log10 and the “log partition toluene / HPLC water” value is given as -0.03291 log10.
Take `Nc1nc(Cl)nc2c1ncn2[C@H]1C[C@H](O)[C@@H](CO)O1`: the “log partition 1-octanol / HPLC water” value came out at 0.3863 log10; the “log partition butyl acetate / HPLC water” value is given as -0.3544 log10; the “log partition chloroform / HPLC water” value was -0.3218 log10; the “log partition cyclohexane / HPLC water” value was -1.47 log10. The “log partition dichloromethane / HPLC water, unbuffered, traces of methanol / DMSO” value is recorded as -0.9957 log10; the “log partition n-hexane / HPLC water” value is on record as -1.176 log10; the “log partition n-octane / HPLC water” value is -1.209 log10; the “log partition n-undecane / HPLC water” value was -1.567 log10. In addition, the “log partition oleylalcohol / HPLC water” value was -0.4024 log10 and the “log partition toluene / HPLC water” value is on record as -0.8939 log10.

For the origin of these results see PMC10569036.
